Here are results for 28 molecules from patent US9796719B2, “Compounds and pharmaceutical compositions thereof for the treatment of inflammatory disorders” (GALAPAGOS NV, priority 2013, dated 2017).

Structures can show the parent of a compound that is named as a salt. A value given as a limit tells only on which side of the number the result lay.

This experiment deals with hENPP2 (UniProtKB/SwissProt Sequence ref Q13822) (Homo sapiens (Human), UniProt Q13822). Nature of the experiment: LPC hENPP2 assay (choline release, LPC as substrate). The format is biochemical. The procedure, abridged:
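Choline released from LPC by ENPP2 is quantified after stopping with stop-developer containing 0.6 U/mL choline oxidase, 0.6 U/mL peroxidase, 1.8 mM TOOS, 1.2 mM amino-antipyrine and 20 mM EGTA. Quinoneimine dye read at 555 nm after 30 min at room temperature.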
As to `CCc1nc2ccc(C3=CCN(S(C)(=O)=O)CC3)nn2c1N(C)c1nc(-c2ccc(F)cc2C#N)cs1` [Cpd 204, 2-(2-((2-ethyl-6-(1-(methylsulfonyl)-1,2,3,6-tetrahydropyridin-4-yl)imidazo[1,2-b]pyridazin-3-yl)(methyl)amino)thiazol-4-yl)-5-fluorobenzonitrile], the IC50 – broadly, the concentration that gives 50% inhibition – was 100 to 500 nM.

As to `CCc1nc2ccc(N3CCC(OC=O)C3)nn2c1N(C)c1nc(-c2ccc(F)cc2)cs1` (stereo not shown) [Compound 130, 1-(2-ethyl-3-((4-(4-fluorophenyl)thiazol-2-yl)(methyl)amino)imidazo[1,2-b]pyridazin-6-yl)pyrrolidin-3-yl formate], the half-inhibitory concentration (IC50) is > 1000 nM.

`CCOC(=O)NCCN1CCN(c2ccc3nc(CC)c(N(C)c4nc(-c5ccc(F)cc5)cs4)n3n2)CC1` [Cpd 58, ethyl 2-(4-(2-ethyl-3-((4-(4-fluorophenyl)thiazol-2-yl)(methyl)amino)imidazo[1,2-b]pyridazin-6-yl)piperazin-1-yl)ethylcarbamate]: the half-inhibitory concentration (IC50) was > 1000 nM.

Consider `CCc1nc2ccc(N3CCC4(CCNC4)C3)nn2c1N(C)c1nc(-c2ccc(F)cc2)c(C#N)s1` (stereo not shown) [Cpd 166, 2-((2-ethyl-6-(2,7-diazaspiro[4.4]nonan-2-yl)imidazo[1,2-b]pyridazin-3-yl)(methyl)amino)-4-(4-fluorophenyl) thiazole-5-carbonitrile], for which the IC50 lay within 100 to 500 nM.

Molecule `CCc1nc2ccc(N3CC[C@H](NCC(=O)N(C)C)C3)nn2c1N(C)c1nc(-c2ccc(F)cc2)c(C#N)s1` [Cpd 175, (S)-2-(1-(3-((5-cyano-4-(4-fluorophenyl)thiazol-2-yl)(methyl)amino)-2-ethylimidazo[1,2-b]pyridazin-6-yl)pyrrolidin-3-ylamino)-N,N-dimethylacetamide] returned an IC50 of 0.01 to 100 nM.

In the case of `CCc1nc2ccc(N3CCC(C(=O)OC)C3)nn2c1N(C)c1nc(-c2ccc(F)cc2)cs1` (stereo not shown) [Cpd 139, 1-(2-Ethyl-3-{[4-(4-fluoro-phenyl)-thiazol-2-yl]-methyl-amino}-imidazo[1,2-b]pyridazin-6-yl)-pyrrolidine-3-carboxylic acid methyl ester], the IC50 was > 1000 nM.

Take `CCc1nc2ccc(N3CCCC(N4CCOCC4)C3)nn2c1N(C)c1nc(-c2ccc(F)cc2)cs1` (stereo not shown) [Cpd 110, N-(2-ethyl-6-(3-morpholino-piperidin-1-yl)imidazo[1,2-b]pyridazin-3-yl)-4-(4-fluorophenyl)-N-methylthiazol-2-amine]: the 50% inhibitory concentration (IC50) is > 1000 nM.

Turning to `CCc1nc2cnc(N3CCNCC3)cn2c1N(C)c1nc(-c2ccc(F)cc2C#N)cs1` [Cpd 15, 2-(2-((2-ethyl-6-(piperazin-1-yl)imidazo[1,2-a]pyrazin-3-yl)(methyl)amino)thiazol-4-yl)-5-fluorobenzonitrile], the concentration for half-maximal inhibition (IC50) is > 1000 nM.

Take `CCc1nc2ccc(N3CCC(O)(CNC(=O)C(C)C)C3)nn2c1N(C)c1nc(-c2ccc(F)cc2)c(C#N)s1` (stereo not shown) [Cpd 170, N-((1-(3-((5-cyano-4-(4-fluorophenyl)thiazol-2-yl)(methyl)amino)-2-ethylimidazo[1,2-b]pyridazin-6-yl)-3-hydroxypyrrolidin-3-yl)methyl) isobutyramide]: the IC50 was in the range of 100 to 500 nM.

Take `CCc1nc2cnc(N3CCN(CC(=O)N4CCC4)CC3)cn2c1N(C)c1nc(-c2ccc(F)cc2)cs1` [Cpd 13, 1-(azetidin-1-yl)-2-(4-(2-ethyl-3-((4-(4-fluorophenyl)thiazol-2-yl)(methyl)amino)imidazo[1,2-a]pyrazin-6-yl)piperazin-1-yl)ethanone]: the 50% inhibitory concentration (IC50) was > 1000 nM.

With `CCc1nc2ccc(N3CCN(C4COC4)CC3)nn2c1N(C)c1nc(-c2ccc(F)cc2)cs1` [Compound 38, N-(2-ethyl-6-(4-(oxetan-3-yl)piperazin-1-yl)imidazo[1,2-b]pyridazin-3-yl)-4-(4-fluorophenyl)-N-methylthiazol-2-amine], the IC50 was > 1000 nM.

`CCc1nc2ccc(C3CCN(CC(=O)N4CC(O)C4)CC3)nn2c1N(C)c1nc(-c2ccc(F)cc2C#N)cs1` [Cpd 207, 2-(2-((2-ethyl-6-(1-(2-(3-hydroxyazetidin-1-yl)-2-oxoethyl)piperidin-4-yl)imidazo[1,2-b]pyridazin-3-yl)(methyl)amino)thiazol-4-yl)-5-fluorobenzonitrile] gave an IC50 of 100 to 500 nM.

`CCc1nc2ccc(C3CCN(CC(=O)N(C)C)CC3)nn2c1N(C)c1nc(-c2ccc(F)cc2)c(CO)s1` [Cpd 203, 2-(4-(2-ethyl-3-((4-(4-fluorophenyl)-5-(hydroxymethyl)thiazol-2-yl)(methyl)amino)imidazo[1,2-b]pyridazin-6-yl)piperidin-1-yl)-N,N-dimethylacetamide] displayed a concentration for half-maximal inhibition (IC50) of 500 to 1000 nM.

Take `CCc1nc2ccc(N3CCN(S(C)(=O)=O)[C@@H](CO)C3)nn2c1N(C)c1nc(-c2ccc(F)cc2)cs1` [Cpd 69, (R)-(4-(2-ethyl-3-((4-(4-fluorophenyl)thiazol-2-yl)(methyl)amino)imidazo[1,2-b]pyridazin-6-yl)-1-(methylsulfonyl)piperazin-2-yl)methanol]: the IC50 is > 1000 nM.

`CCc1nc2ccc(N3CC(N)C3)nn2c1N(C)c1nc(-c2ccc(F)cc2)c(C#N)s1` [Cpd 188, 2-((6-(3-aminoazetidin-1-yl)-2-ethylimidazo[1,2-b]pyridazin-3-yl)(methyl)amino)-4-(4-fluorophenyl) thiazole-5-carbonitrile] gave a half-inhibitory concentration (IC50) of 0.01 to 100 nM.

Regarding `CCc1nc2ccc(N3CCN(CC(=O)N(C)C(C)C)CC3)nn2c1N(C)c1nc(-c2ccc(F)cc2)cs1` [Cpd 37, 2-(4-(2-ethyl-3-((4-(4-fluorophenyl)thiazol-2-yl)(methyl)amino)imidazo[1,2-b]pyridazin-6-yl)piperazin-1-yl)-N-isopropyl-N-methylacetamide], the concentration for half-maximal inhibition (IC50) lay in the range of 100 to 500 nM.

With `CCc1nc2ccc(N3CCC(O)(CNC(C)=O)C3)nn2c1N(C)c1nc(-c2ccc(F)cc2)c(C#N)s1` (stereo not shown) [Cpd 169, N-((1-(3-((5-cyano-4-(4-fluorophenyl)thiazol-2-yl)(methyl)amino)-2-ethylimidazo[1,2-b]pyridazin-6-yl)-3-hydroxypyrrolidin-3-yl)methyl)acetamide], the concentration for half-maximal inhibition (IC50) was in the range of 0.01 to 100 nM.

`CCc1nc2ccc(C3CCN(CC(=O)NC)CC3)nn2c1N(C)c1nc(-c2ccc(F)cc2C#N)c(C)s1` [Cpd 211, 2-(4-(3-((4-(2-cyano-4-fluorophenyl)-5-methylthiazol-2-yl)(methyl)amino)-2-ethylimidazo[1,2-b]pyridazin-6-yl)piperidin-l-yl)-N-methylacetamide]: the IC50 is > 1000 nM.

Take `CCc1nc2ccc(N3CCC[C@H]3C(=O)O)nn2c1N(C)c1nc(-c2ccc(F)cc2)cs1` [Compound 138, (S)-1-(2-ethyl-3-((4-(4-fluorophenyl)thiazol-2-yl)(methyl)amino)imidazo[1,2-b]pyridazin-6-yl)pyrrolidine-2-carboxylic acid]: the IC50 is > 1000 nM.

With `CCc1nc2ccc(N3CCC(O)CC3)nn2c1N(C)c1nc(-c2ccc(F)cc2)cs1` [Cpd 90, 1-(2-ethyl-3-((4-(4-fluorophenyl)thiazol-2-yl)(methyl)amino)imidazo[1,2-b]pyridazin-6-yl)piperidin-4-ol], the IC50 is > 1000 nM.

Molecule `CCc1nc2ccc(N3CCC4(CN(C)C(=O)O4)C3)nn2c1N(C)c1nc(-c2ccc(F)cc2)cs1` (stereo not shown) [Cpd 119, 7-(2-ethyl-3-((4-(4-fluorophenyl)thiazol-2-yl)(methyl)amino)imidazo[1,2-b]pyridazin-6-yl)-3-methyl-1-oxa-3,7-diazaspiro[4.4] nonan-2-one] returned an IC50 of 100 to 500 nM.

Take `CCc1nc2ccc(N3CCC(CNC(=O)OC(C)(C)C)CC3)nn2c1N(C)c1nc(-c2ccc(F)cc2)cs1` [Cpd 103, [1-(2-Ethyl-3-{[4-(4-fluoro-phenyl)-thiazol-2-yl]-methyl-amino}-imidazo[1,2-b]pyridazin-6-yl)-piperidin-4-ylmethyl]-carbamic acid tert-butyl ester]: the IC50 is > 1000 nM.

The molecule `CCc1nc2ccc(N3CC(NS(C)(=O)=O)C3)nn2c1N(C)c1nc(-c2ccc(F)cc2)cs1` [Cpd 158, N-(1-(2-ethyl-3-((4-(4-fluorophenyl)thiazol-2-yl)(methyl)amino)imidazo[1,2-b]pyridazin-6-yl)azetidin-3-yl)methane-sulfonamide] had an IC50 of 500 to 1000 nM.

`CCc1nc2ccc(N3CCN(C(=O)OC(C)(C)C)[C@H](CO)C3)nn2c1N(C)c1nc(-c2ccc(F)cc2)cs1` [Cpd 59, (S)-tert-butyl 4-(2-ethyl-3-((4-(4-fluorophenyl)thiazol-2-yl)(methyl)amino)imidazo[1,2-b]pyridazin-6-yl)-2-(hydroxymethyl) piperazine-1-carboxylate]: the concentration for half-maximal inhibition (IC50) is > 1000 nM.

In turn, `CCc1nc2ccc(N3CC(NCC(=O)N4CC(O)C4)C3)nn2c1N(C)c1nc(-c2ccc(F)cc2)cs1` [Cpd 155, 2-(1-(2-ethyl-3-((4-(4-fluorophenyl)thiazol-2-yl)(methyl)amino)imidazo[1,2-b]pyridazin-6-yl)azetidin-3-ylamino)-1-(3-hydroxyazetidin-1-yl)ethanone] had an IC50 of 100 to 500 nM.

Regarding `CCc1nc2ccc(N3CC(C(=O)N4CCC(O)C4)C3)nn2c1N(C)c1nc(-c2ccc(F)cc2)cs1` (stereo not shown) [Cpd 159, (1-(2-ethyl-3-((4-(4-fluorophenyl)thiazol-2-yl)(methyl)amino)imidazo[1,2-b]pyridazin-6-yl)azetidin-3-yl)(3-hydroxypyrrolidin-1-yl)methanone], the IC50 is > 1000 nM.

As for `CCc1nc2ccc(N3CCC(N4CCC(N(C)C(C)=O)CC4)C3)nn2c1N(C)c1nc(-c2ccc(F)cc2)c(C#N)s1` (stereo not shown) [Cpd 181, N-(1-(1-(3-((5-cyano-4-(4-fluorophenyl)thiazol-2-yl)(methyl)amino)-2-ethylimidazo[1,2-b]pyridazin-6-yl)pyrrolidin-3-yl)piperidin-4-yl)-N-methylacetamide], the IC50 was 0.01 to 100 nM.

Take `CCc1nc2ccc(N3CCC(CNS(C)(=O)=O)CC3)nn2c1N(C)c1nc(-c2ccc(F)cc2)cs1` [Cpd 105, N-((1-(2-ethyl-3-((4-(4-fluorophenyl)thiazol-2-yl)(methyl)amino)imidazo[1,2-b]pyridazin-6-yl)piperidin-4-yl)methyl) methanesulfonamide]: the IC50 is > 1000 nM.
